Experimental data: BigSolDB 2.1

NC(=O)c1ccncc1
solubility (mole fraction)
Conditions	278.15 K	283.15 K	288.15 K	293.15 K	298.15 K	303.15 K	308.15 K	313.15 K	318.15 K	323.15 K
in DMAc	0.114	0.129	0.147	0.168	0.19	0.213	0.236	0.256	0.278	0.299
in DMF	0.13	0.135	0.147	0.157	0.17	0.181	0.193	0.208	0.221	0.24
in THF	0.0108	0.012	0.0143	0.0167	0.0194	0.0218	0.0247	0.0276	0.0308	0.0344
in acetone	0.00012	0.00014	0.00017	0.00021	0.00025	0.00029	0.00034	0.00039	0.00047	0.00057
in acetonitrile	0.00251	0.00313	0.00392	0.00473	0.00572	0.00695	0.00841	0.0102	0.0125	0.0152
in ethanol	0.0191	0.0221	0.0266	0.0307	0.0347	0.0407	0.0461	0.0548	0.0664	0.0796
in ethyl acetate	0.00272	0.00341	0.00414	0.00504	0.0062	0.00754	0.0105	0.0138	0.0172	0.0218
in isopropanol	0.0156	0.0182	0.0211	0.0253	0.0291	0.034	0.0381	0.0465	0.0559	0.0669
in isopropyl acetate	0.00204	0.00217	0.0025	0.00283	0.00328	0.00397	0.00505	0.00616	0.00734	0.00871
in methanol	0.0336	0.0392	0.0439	0.0515	0.0602	0.0678	0.0773	0.0911	0.103	0.122
in methyl acetate	0.00372	0.00431	0.00542	0.00668	0.00826	0.00969	0.0127	0.0152	0.0184	0.0218
in n-butanol	0.0172	0.0189	0.022	0.0248	0.0284	0.0319	0.0359	0.041	0.0482	0.0565
in n-pentanol	0.0126	0.0136	0.0152	0.0177	0.0204	0.0234	0.0279	0.033	0.039	0.046
in n-propanol	0.0218	0.0242	0.0275	0.0324	0.0374	0.0418	0.0455	0.0541	0.0639	0.0764
in n-propyl acetate	0.00198	0.00249	0.00323	0.00404	0.00494	0.00615	0.0072	0.00832	0.00937	0.0109
